Starred links: 1 amine or outer side, 2 acyl side, 3 side chain; linkers in the order of their positions; H or OH if unused. Positions of bridges follow the written chain, without caps; N, C: chain ends. Non-standard residues stand in square brackets, D forms with d. Residues, ends and D or L forms follow the SMILES beside them. ξ: configuration not given here. *: point of attachment. Trp(1-CH2COOH) = N[C@@H](Cc1cn(CC(=O)O)c2ccccc12)C(=O)O; X24 = O=C(C[C@@H](Cc1ccc(O)cc1)C(=O)[*:1])C[*:2]; PEG6 = NCCOCCOCCOCCOCCOCCOCCC(=O)O; Hyp = O=C(O)[C@@H]1C[C@@H](O)CN1; Myristoyl = CCCCCCCCCCCCCC(=O)*; Undecanoyl = CCCCCCCCCCC(=O)*; NMeNle = CCCC[C@H](NC)C(=O)O; NMeA = CN[C@@H](C)C(=O)O; Dab = NCC[C@H](N)C(=O)O; ξD = NC(CC(=O)O)C(=O)O; ξC = NC(CS)C(=O)O
molecular target: T1, PD-L1 (Homo sapiens, UniProt Q9NZQ7); assay: PD-1/PD-L1 Homogenous Time-Resolved Fluorescence (HTRF) binding assay (PD-1-Ig/PD-L1-His); settings: inhibition of PD-1-Ig binding to PD-L1-TVMV-His; value given as number; read-out: HTRF IC50
T1 construct: hPDL1(19-239)-TVMV-His; made in house; host or cells: HEK293T
T1 sequence (Q9NZQ7 with tags, fused parts or gaps): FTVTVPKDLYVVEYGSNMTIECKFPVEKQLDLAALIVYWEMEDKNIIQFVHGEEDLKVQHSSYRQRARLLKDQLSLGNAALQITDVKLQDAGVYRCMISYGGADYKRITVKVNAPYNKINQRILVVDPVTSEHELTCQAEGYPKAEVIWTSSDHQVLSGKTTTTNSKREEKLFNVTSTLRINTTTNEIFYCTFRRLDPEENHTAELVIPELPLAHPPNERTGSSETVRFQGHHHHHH
Text: The ability of the macrocyclic peptides of the present disclosure to bind to PD-L1 was investigated using a PD-1/PD-L1 Homogenous Time-Resolved Fluorescence (HTRF) binding assay.
Homogenous Time-Resolved Fluorescence (HTRF) Assays of Binding of Soluble PD-1 to Soluble PD-L1. Soluble PD-1 and soluble PD-L1 refers to proteins with carboxyl-end truncations that remove the transmembrane-spanning regions and are fused to heterologous sequences, specifically the Fc portion of the human immunoglobuling G sequence (Ig) or the hexahistidine epitope tag (His). All binding studies were performed in an HTRF assay buffer consisting of dPBS supplemented with 0.1% (w/v) bovine serum albumin and 0.05% (v/v) Tween-20. For the PD-1-Ig/PD-L1-His binding assay, inhibitors were pre-incubated with PD-L1-His (10 nM final) for 15 m in 4 μl of assay buffer, followed by addition of PD-1-Ig (20 nM final) in 1 μl of assay buffer and further incubation for 15m. PD-L1 fusion proteins from either human, cynomologous macaques, mouse, or other species were used. HTRF detection was achieved using europium crypate-labeled anti-Ig monoclonal antibody (1 nM final) and allophycocyanin (APC) labeled anti-His monoclonal antibody (20 nM final). Antibodies were diluted in HTRF detection buffer and 5 μl was dispensed on top of binding reaction. The reaction was allowed to equilibrate for 30 minutes and signal (665 nm/620 nm ratio) was obtained using an EnVision fluorometer. Additional binding assays were established between PD-1-Ig/PD-L2-His (20 and 5 nM, respectively), CD80-His/PD-L1-Ig (100 and 10 nM, respectively) and CD80-His/CTLA4-Ig (10 and 5 nM, respectively). Binding/competition studies between biotinylated Compound No. 71 and human PD-L1-His were performed as follows. Macrocyclic peptide inhibitors were pre-incubated with PD-L1-His (10 nM final) for 60 minutes in 4 μl of assay buffer followed by addition of biotinylated Compound No. 71 (0.5 nM final) in 1 μl of assay buffer. Binding was allowed to equilibrate for 30 minutes followed by addition of europium crypated labeled Streptavidin (2.5 pM final) and APC-labeled anti-His (20 nM final) in 5 μl of HTRF buffer. The reaction was allowed to equilibrate for 30m and signal (665 nm/620 nm ratio) was obtained using an EnVision fluorometer.
Recombinant Proteins. Carboxyl-truncated human PD-1 (amino acids 25-167) with a C-terminal human Ig epitope tag [hPD-1 (25-167)-3S-IG] and human PD-L1 (amino acids 18-239) with a C-terminal His epitope tag [hPD-L1(19-239)-tobacco vein mottling virus protease cleavage site (TVMV)-His] were expressed in HEK293T cells and purified sequentially by recombinant Protein A affinity chromatography and size exclusion chromatography. Human PD-L2-His (Sino Biologicals), CD80-His (Sino Biologicals), CTLA4-Ig (RnD Systems) were all obtained through commercial sources.

| IC50 [nM] | Structure (SMILES) |
| --- | --- |
| 91.4 | CCCCCCCCCCC(=O)NCCCC[C@H](NC(=O)[C@H](CC(=O)O)NC(=O)CNC(=O)[C@@H]1CSCC(=O)N[C@@H](Cc2ccc(O)cc2)C(=O)N(C)[C@@H](C)C(=O)N[C@@H](CC(N)=O)C(=O)N2CCC[C@H]2C(=O)N[C@@H](Cc2cnc[nH]2)C(=O)N[C@@H](CCC(=O)O)C(=O)N2C[C@H](O)C[C@H]2C(=O)N[C@@H](Cc2c[nH]c3ccccc23)C(=O)N[C@@H](CO)C(=O)N[C@@H](Cc2c[nH]c3ccccc23)C(=O)N(C)[C@@H](CCCC)C(=O)N(C)[C@@H](CCCC)C(=O)N[C@@H](CC(C)C)C(=O)N1)C(N)=O [Example 11009] ({CH2CO}-Y[NMeA]NPHE[Hyp]WSW[NMeNle][NMeNle]LCGDK(Undecanoyl)-NH2; thioether N-14) |

same assay, conditions: inhibition of PD-1-Ig binding to PD-L1-TVMV-His; value given as range class; read-out: HTRF IC50

| IC50 [nM] | Structure (SMILES) |
| --- | --- |
| 10 to 99 | CCCCCCCCCCC(=O)NCCCC[C@H](NC(=O)[C@H](CC(=O)O)NC(=O)CNC(=O)[C@@H]1CSCC(=O)N[C@@H](Cc2ccc(O)cc2)C(=O)N(C)[C@@H](C)C(=O)N[C@@H](CC(=O)O)C(=O)N2CCC[C@H]2C(=O)N[C@@H](Cc2cnc[nH]2)C(=O)N[C@@H](CC(C)C)C(=O)N2C[C@H](O)C[C@H]2C(=O)N[C@@H](Cc2c[nH]c3ccccc23)C(=O)N[C@@H](CO)C(=O)N[C@@H](Cc2c[nH]c3ccccc23)C(=O)N(C)[C@@H](CCCC)C(=O)N(C)[C@@H](CCCC)C(=O)N[C@@H](CCCNC(=N)N)C(=O)N1)C(N)=O [Example 11006] ({CH2CO}-Y[NMeA]DPHL[Hyp]WSW[NMeNle][NMeNle]RCGDK(Undecanoyl)-NH2; thioether N-14) |
| 10 to 99 | CCCCCCCCCCC(=O)NCCCC[C@H](NC(=O)CNC(=O)[C@@H]1CSCC(=O)N[C@@H](Cc2ccc(O)cc2)C(=O)N(C)[C@@H](C)C(=O)N[C@@H](CC(N)=O)C(=O)N2CCC[C@H]2C(=O)N[C@@H](Cc2cnc[nH]2)C(=O)N[C@@H](CCC(=O)O)C(=O)N2C[C@H](O)C[C@H]2C(=O)N[C@@H](Cc2c[nH]c3ccccc23)C(=O)N[C@@H](CCN)C(=O)N[C@@H](Cc2c[nH]c3ccccc23)C(=O)N(C)[C@@H](CCCC)C(=O)N(C)[C@@H](CCCC)C(=O)N[C@@H](CCN)C(=O)N1)C(N)=O [Example 11007] ({CH2CO}-Y[NMeA]NPHE[Hyp]W[Dab]W[NMeNle][NMeNle][Dab]CGK(Undecanoyl)-NH2; thioether N-14) |
| 100 to 1600 | CCCCCCCCCCC(=O)NCCCC[C@H](NC(=O)[C@H](CC(=O)O)NC(=O)[C@@H]1CSCC(=O)N[C@@H](Cc2ccc(O)cc2)C(=O)N(C)[C@@H](C)C(=O)N[C@@H](CC(=O)O)C(=O)N2CCC[C@H]2C(=O)N[C@@H](Cc2cnc[nH]2)C(=O)N[C@@H](CC(C)C)C(=O)N2C[C@H](O)C[C@H]2C(=O)N[C@@H](Cc2c[nH]c3ccccc23)C(=O)N[C@@H](CO)C(=O)N[C@@H](Cc2c[nH]c3ccccc23)C(=O)N(C)[C@@H](CCCC)C(=O)N(C)[C@@H](CCCC)C(=O)N[C@@H](CCCNC(=N)N)C(=O)N1)C(N)=O [Example 11008] ({CH2CO}-Y[NMeA]DPHL[Hyp]WSW[NMeNle][NMeNle]RCDK(Undecanoyl)-NH2; thioether N-14) |
| 10 to 99 | CCCCCCCCCCC(=O)NCCCC[C@H](NC(=O)[C@H](CCC(=O)O)NC(=O)CNC(=O)[C@@H]1CSCC(=O)N[C@@H](Cc2ccc(O)cc2)C(=O)N(C)[C@@H](C)C(=O)N[C@@H](CC(N)=O)C(=O)N2CCC[C@H]2C(=O)N[C@@H](Cc2cnc[nH]2)C(=O)N[C@@H](CCC(=O)O)C(=O)N2C[C@H](O)C[C@H]2C(=O)N[C@@H](Cc2c[nH]c3ccccc23)C(=O)N[C@@H](CO)C(=O)N[C@@H](Cc2c[nH]c3ccccc23)C(=O)N(C)[C@@H](CCCC)C(=O)N(C)[C@@H](CCCC)C(=O)N[C@@H](CC(C)C)C(=O)N1)C(N)=O [Example 11010] ({CH2CO}-Y[NMeA]NPHE[Hyp]WSW[NMeNle][NMeNle]LCGEK(Undecanoyl)-NH2; thioether N-14) |
| 10 to 99 | CCCCCCCCCCC(=O)NCCCC[C@H](NC(=O)[C@H](CC(=O)O)NC(=O)[C@@H]1CSCC(=O)N[C@@H](Cc2ccc(O)cc2)C(=O)N(C)[C@@H](C)C(=O)N[C@@H](CC(N)=O)C(=O)N2CCC[C@H]2C(=O)N[C@@H](Cc2cnc[nH]2)C(=O)N[C@@H](CCC(=O)O)C(=O)N2C[C@H](O)C[C@H]2C(=O)N[C@@H](Cc2c[nH]c3ccccc23)C(=O)N[C@@H](CCN)C(=O)N[C@@H](Cc2cn(CC(=O)O)c3ccccc23)C(=O)N(C)[C@@H](CCCC)C(=O)N(C)[C@@H](CCCC)C(=O)N[C@@H](CC(C)C)C(=O)N1)C(N)=O [Example 11011] ({CH2CO}-Y[NMeA]NPHE[Hyp]W[Dab][Trp(1-CH2COOH)][NMeNle][NMeNle]LCDK(Undecanoyl)-NH2; thioether N-14) |
| 10 to 99 | CCCCCCCCCCC(=O)NCCCC[C@H](NC(=O)CCOCCOCCOCCOCCOCCOCCNC(=O)[C@@H]1CSCC(=O)C[C@@H](Cc2ccc(O)cc2)C(=O)N(C)[C@@H](C)C(=O)N[C@@H](CC(N)=O)C(=O)N2CCC[C@H]2C(=O)N[C@@H](Cc2cnc[nH]2)C(=O)N[C@@H](CCC(=O)O)C(=O)N2C[C@H](O)C[C@H]2C(=O)N[C@@H](Cc2c[nH]c3ccccc23)C(=O)N[C@@H](CCN)C(=O)N[C@@H](Cc2cn(CC(=O)O)c3ccccc23)C(=O)N(C)[C@@H](CCCC)C(=O)N(C)[C@@H](CCCC)C(=O)N[C@@H](CC(C)C)C(=O)N1)C(N)=O [Example 11012] ([NMeA]NPHE[Hyp]W[Dab][Trp(1-CH2COOH)][NMeNle][NMeNle]LC[PEG6]K(Undecanoyl)-NH2; linker N-13 via X24) |
| 10 to 99 | CCCCCCCCCCCCCC(=O)NCCCC[C@H](NC(=O)C(CC(=O)O)NC(=O)CCOCCOCCOCCOCCOCCOCCNC(=O)CNC(=O)[C@@H]1CSCC(=O)C[C@@H](Cc2ccc(O)cc2)C(=O)N(C)[C@@H](C)C(=O)N[C@@H](CC(=O)O)C(=O)N2CCC[C@H]2C(=O)N[C@@H](Cc2cnc[nH]2)C(=O)N[C@@H](CC(C)C)C(=O)N2C[C@H](O)C[C@H]2C(=O)N[C@@H](Cc2c[nH]c3ccccc23)C(=O)N[C@@H](CO)C(=O)N[C@@H](Cc2c[nH]c3ccccc23)C(=O)N(C)[C@@H](CCCC)C(=O)N(C)[C@@H](CCCC)C(=O)N[C@@H](CCCNC(=N)N)C(=O)N1)C(N)=O (stereo partly shown) [Example 11013] ([NMeA]DPHL[Hyp]WSW[NMeNle][NMeNle]RCG[PEG6][ξD]K(Myristoyl)-NH2; linker N-13 via X24) |
| 100 to 1600 | CCCCCCCCCCCCCC(=O)NCCCC[C@H](NC(=O)[C@H](CC(=O)O)NC(=O)[C@H](CC(=O)O)NC(=O)CNC(=O)[C@@H]1CSCC(=O)N[C@@H](Cc2ccc(O)cc2)C(=O)N(C)[C@@H](C)C(=O)N[C@@H](CC(=O)O)C(=O)N2CCC[C@H]2C(=O)N[C@@H](Cc2cnc[nH]2)C(=O)N[C@@H](CC(C)C)C(=O)N2C[C@H](O)C[C@H]2C(=O)N[C@@H](Cc2c[nH]c3ccccc23)C(=O)N[C@@H](CO)C(=O)N[C@@H](Cc2c[nH]c3ccccc23)C(=O)N(C)[C@@H](CCCC)C(=O)N(C)[C@@H](CCCC)C(=O)N[C@@H](CCCNC(=N)N)C(=O)N1)C(N)=O [Example 11014] ({CH2CO}-Y[NMeA]DPHL[Hyp]WSW[NMeNle][NMeNle]RCGDDK(Myristoyl)-NH2; thioether N-14) |
| 10 to 99 | CCCCCCCCCCCCCC(=O)NCCCC[C@H](NC(=O)CCOCCOCCOCCOCCOCCOCCNC(=O)CNC(=O)C1CSCC(=O)N[C@@H](Cc2ccc(O)cc2)C(=O)N(C)[C@@H](C)C(=O)N[C@@H](CC(=O)O)C(=O)N2CCC[C@H]2C(=O)N[C@@H](Cc2cnc[nH]2)C(=O)N[C@@H](CC(C)C)C(=O)N2C[C@H](O)C[C@H]2C(=O)N[C@@H](Cc2c[nH]c3ccccc23)C(=O)N[C@@H](CO)C(=O)N[C@@H](Cc2c[nH]c3ccccc23)C(=O)N(C)[C@@H](CCCC)C(=O)N(C)[C@@H](CCCC)C(=O)N[C@@H](CCCNC(=N)N)C(=O)N1)C(N)=O (stereo partly shown) [Example 11015] ({CH2CO}-Y[NMeA]DPHL[Hyp]WSW[NMeNle][NMeNle]R[ξC]G[PEG6]K(Myristoyl)-NH2; thioether N-14) |
